Measured values: US20230180754A1, “HETEROCYCLIC COMPOUNDS FOR THE CONTROL OF INVERTEBRATE PESTS” (priority 2020, published 2023)

Assays:
Assay type in all cases: in vivo
[1] = tested on: green peach aphid (Myzus persicae); test: Green peach aphid (Myzus persicae), systemic artificial diet/membrane test; settings: 72 h, aphid mortality after 3 days, read-out: mortality in comparison with untreated controls
Excerpt: For evaluating control of green peach aphid (Myzus persicae) through systemic means the test unit consisted of 96-well-microtiter plates containing liquid artificial diet under an artificial membrane.
The compounds were formulated using a solution containing 75% v/v water and 25% v/v DMSO. Different concentrations of formulated compounds were pipetted into the aphid diet, using a custom-built pipette, at two replications.
After application, 5-8 adult aphids were placed on the artificial membrane inside the microtiter plate wells. The aphids were then allowed to suck on the treated aphid diet and incubated at about 23 ±1° C. and about 50 ±5% relative humidity for 3 days. Aphid mortality and fecundity was then visually assessed.

[2] = tested on: yellow fever mosquito (Aedes aegypti); test: whole plant or invertebrate; settings: 48 h, larval mortality after 2 days, read-out: mortality in comparison with untreated controls
Experimental: For evaluating control of yellow fever mosquito (Aedes aegypti) the test unit consisted of 96-well-microtiter plates containing 200 μl of tap water per well and 5-15 freshly hatched A. aegypti larvae.
The active compounds were formulated using a solution containing 75% (v/v) water and 25% (v/v) DMSO. Different concentrations of formulated compounds or mixtures were sprayed onto the insect diet at 2.5 μl, using a custom-built micro atomizer, at two replications.
After application, microtiter plates were incubated at 28±1° C., 80±5% RH for 2 days. Larval mortality was then visually assessed.

[3] = tested on: boll weevil (Anthonomus grandis); test: Boll weevil (Anthonomus grandis), microtiter plate insect diet test; settings: 120 h, egg and larval mortality after 5 days, read-out: mortality in comparison with untreated controls
Experimental: (§1) For evaluating control of boll weevil (Anthonomus grandis) the test unit consisted of 96-well-microtiter plates containing an insect diet and 5-10 A. grandis eggs. The compounds were formulated using a solution containing 75% v/v water and 25% v/v DMSO. Different concentrations of formulated compounds were sprayed onto the insect diet at 5 μl, using a custom-built micro atomizer, at two replications.
After application, microtiter plates were incubated at about 25±1° C. and about 75±5% relative humidity for 5 days. Egg and larval mortality was then visually assessed.

[4] = tested on: tobacco budworm (Heliothis virescens); test: Tobacco budworm (Heliothis virescens), microtiter plate insect diet test; settings: 120 h, egg and larval mortality after 5 days, read-out: mortality in comparison with untreated controls
Experimental: as §1, with “of tobacco budworm (Heliothis virescens)” for “of boll weevil (Anthonomus grandis)”, “and 15-25 H. virescens” for “and 5-10 A. grandis”, “at 10” for “at 5”
After application, microtiter plates were incubated at about 28±1° C. and about 80±5% relative humidity for 5 days. Egg and larval mortality was then visually assessed.

[5] = tested on: southern armyworm (Spodoptera eridania), 2nd instar larvae; test: Southern armyworm (Spodoptera eridania), 2nd instar larvae, sprayed lima bean plants; settings: 96 h, 4 days after treatment, read-out: mortality in comparison with untreated controls
Excerpt: The active compounds were formulated by a Tecan liquid handler in 100% cyclohexanone as a 10′000 ppm solution supplied in tubes. The 10′000 ppm solution was serially diluted in 100% cyclohexanone to make interim solutions. These served as stock solutions for which final dilutions were made by the Tecan in 50% acetone:50% water (v/v) into 10 or 20m1 glass vials. A nonionic surfactant (Kinetic®) was included in the solution at a volume of 0.01% (v/v). The vials were then inserted into an automated electrostatic sprayer equipped with an atomizing nozzle for application to plants/insects. Lima bean plants (variety Sieva) were grown 2 plants to a pot and selected for treatment at the 1st true leaf stage. Test solutions were sprayed onto the foliage by an automated electrostatic plant sprayer equipped with an atomizing spray nozzle. The plants were dried in the sprayer fume hood and then removed from the sprayer. Each pot was placed into perforated plastic bags with a zip closure. Ten to 11 armyworm larvae were placed into the bag and the bags zipped closed. Test plants were maintained in a growth room at about 25° C. and about 20-40% relative humidity for 4 days, avoiding direct exposure to fluorescent light (14:10 light:dark photo-period) to prevent trapping of heat inside the bags. Mortality and reduced feeding were assessed 4 days after treatment, compared to untreated control plants.

[6] = tested on: diamond back moth (Plutella xylostella); test: Diamond back moth (Plutella xylostella), cabbage leaf disc dip test; settings: foliar, 72 hours after treatment, 3rd instar larvae, read-out: mortality in comparison with untreated controls
Experimental: The active compound was dissolved at the desired concentration in a mixture of 1:1 (vol:vol) distilled water:acetone. Surfactant (Kinetic) was added at a rate of 0.01% (vol/vol). The test solution was prepared at the day of use. Cabbage leaf discs (60 mm in diameter) were dipped in test solution and air-dried. Treated leaves were placed in petri dishes lined with moistened filter paper and inoculated with ten 3rd instar larvae. Mortality was recorded 72 hours after treatment. Feeding damages were also recorded using a scale of 0-100%.

[7] = tested on: orchid thrips (Dichromothrips corbetti); test: Orchid thrips (Dichromothrips corbetti), floral-immersion technique; settings: 72 hours after treatment, adult thrips, read-out: mortality in comparison with untreated controls
Experimental: Dichromothrips corbetti adults used for bioassay were obtained from a colony maintained continuously under laboratory conditions. For testing purposes, the test compound was diluted in a 1:1 mixture of acetone:water (vol:vol), plus Kinetic at a rate of 0.01% v/v.
Thrips potency of each compound was evaluated by using a floral-immersion technique. Each orchid petal was dipped into treatment solution and allowed to dry in Petri dishes. Treated petals were placed into individual re-sealable plastic along with about 20 adult thrips. All test arenas were held under dark condition and a temperature of about 28° C. for duration of the assay. The percent mortality was recorded 72 hours after treatment.

[8] = tested on: rice green leafhopper (Nephotettix virescens); test: Rice green leafhopper (Nephotettix virescens), sprayed rice seedlings; settings: after 72 hours, adults, read-out: mortality in comparison with untreated controls
Experimental: Four to five-week old rice seedlings with cut upper leaf portion were cleaned and washed 24 hours before spraying. The active compounds were formulated in 1:1 acetone:water (vol:vol), and 0.01% vol/vol surfactant (Kinetic) was added. Potted rice seedlings were sprayed with 5-6 ml test solution, air dried, covered with Mylar cages and inoculated with 10 adults. Treated rice plants were kept at about 28-29° C. and relative humidity of about 50-60%. Percent mortality was recorded after 72 hours.

CC(c1ncnn1-c1ncccn1)N(CC1CC1)c1nnc2c(Cl)cc(C(F)(F)F)cn12 (stereo not drawn) [I-6, 8-chloro-N-(cyclopropylmethyl)-N-[1-(2-pyrimidin-2-yl-1,2,4-triazol-3-yl)ethyl]-6-(trifluoromethyl)-[1,2,4]triazolo[4,3-a]pyridin-3-amine]
≥ 50%: mortality at 2500 ppm [1]

CC(Nc1nsc2c(Cl)cc(Cl)cc12)c1ncnn1-c1ncccn1 (stereo not drawn) [I-5, 5,7-dichloro-N-[1-(2-pyrimidin-2-yl-1,2,4-triazol-3-yl)ethyl]-1,2-benzothiazol-3-amine]
≥ 50%: mortality at 2500 ppm [2] | mortality at 2500 ppm [3] | mortality at 2500 ppm [4] | mortality at 2500 ppm [1] | mortality at 300 ppm [5]

CC(Nc1noc2ncc(C(F)(F)F)cc12)c1ncnn1-c1ncccn1 (stereo not drawn) [I-3, N-[1-(2-pyrimidin-2-yl-1,2,4-triazol-3-yl)ethyl]-5-(trifluoromethyl)isoxazolo[5,4-b]pyridin-3-amine]
≥ 50%: mortality at 2500 ppm [3] | mortality at 2500 ppm [1]

CC(NC1=NS(=O)(=O)c2c(Cl)cc(Cl)cc21)c1ncnn1-c1ncccn1 (stereo not drawn) [I-9, 5,7-dichloro-1,1-dioxo-N-[1-(2-pyrimidin-2-yl-1,2,4-triazol-3-yl)ethyl]-1,2-benzothiazol-3-amine]
≥ 50%: mortality at 2500 ppm [3] | mortality at 2500 ppm [1]

CC(Nc1noc2c(C(F)(F)F)cc(C(F)(F)F)cc12)c1ncnn1-c1ncccn1 (stereo not drawn) [I-1, N-[1-(2-pyrimidin-2-yl-1,2,4-triazol-3-yl)ethyl]-5,7-bis(trifluoromethyl)-1,2-benzoxazol-3-amine]
≥ 50%: mortality at 2500 ppm [2] | mortality at 2500 ppm [3] | mortality at 2500 ppm [4] | mortality at 2500 ppm [1]

CCC(Nc1noc2c(C(F)(F)F)cc(C(F)(F)F)cc12)c1ncnn1-c1ncccn1 (stereo not drawn) [I-28, N-[1-(2-pyrimidin-2-yl-1,2,4-triazol-3-yl)propyl]-5,7-bis(trifluoromethyl)-1,2-benzoxazol-3-amine]
≥ 50%: mortality at 2500 ppm [3] | mortality at 2500 ppm [4] | mortality at 2500 ppm [1] | mortality at 300 ppm [6] | mortality at 300 ppm [7]

CC(Nc1c(C(F)(F)F)c(C(F)(F)C(F)(F)F)nn1C)c1ncnn1-c1ncccn1 (stereo not drawn) [I-7, 2-methyl-5-(1,1,2,2,2-pentafluoroethyl)-N-[1-(2-pyrimidin-2-yl-1,2,4-triazol-3-yl)ethyl]-4-(trifluoromethyl)pyrazol-3-amine]
≥ 50%: mortality at 2500 ppm [4] | mortality at 300 ppm [6] | mortality at 300 ppm [7]

FC(F)(F)c1cc(C(F)(F)F)c2onc(NCc3ncnn3-c3ncccn3)c2c1 [I-2, N-[(2-pyrimidin-2-yl-1,2,4-triazol-3-yl)methyl]-5,7-bis(trifluoromethyl)-1,2-benzoxazol-3-amine]
≥ 50%: mortality at 2500 ppm [2] | mortality at 2500 ppm [3] | mortality at 300 ppm [6] | mortality at 300 ppm [7]

CC(Nc1nn(C)c2ccc(C(F)(F)F)cc12)c1ncnn1-c1ncccn1 (stereo not drawn) [I-4, 1-methyl-N-[1-(2-pyrimidin-2-yl-1,2,4-triazol-3-yl)ethyl]-5-(trifluoromethyl)indazol-3-amine]
≥ 50%: mortality at 2500 ppm [2] | mortality at 2500 ppm [3] | mortality at 2500 ppm [4]

CC(Nc1n[s+]([O-])c2c(Cl)cc(Cl)cc12)c1ncnn1-c1ncccn1 (stereo not drawn) [I-8, 5,7-dichloro-1-oxo-N-[1-(2-pyrimidin-2-yl-1,2,4-triazol-3-yl)ethyl]-1,2-benzothiazol-3-amine]
≥ 50%: mortality at 2500 ppm [3] | mortality at 2500 ppm [1] | mortality at 300 ppm [7] | mortality at 300 ppm [8]
